According to patent publication US11000033B2, “Ketone or oxime compound, and herbicide” (NISSAN CHEMICAL CORPORATION, priority 2014, dated 2021):

Assays:
Scirpus juncoides = assay: Test Example 1: herbicidal activity, application before weed generation in submerged conditions (symbol B); type: in vivo
In short: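 Weed control was rated three weeks after treatment on a 0–5 scale, from 5% or lower up to 90% or more. Pre-emergence water-surface application of diluted emulsion at a predetermined rate was made on the day of sowing, in flooded (4 cm water) pots containing rice seedlings, kept at 25–30 °C under glass.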

[1] = system: directly sowed rice plant; assay: Test Example 3: effect on crop by foliage application, Wagner pot (symbol b); type: in vivo
In short: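 Greenhouse culture at 25–30 °C of seeded rice, Cyperus difformis, Leptochloa chinensis and Echinochloa crus-galli var. crus-galli, in alluvial soil held under 0.1–0.5 cm of water in a Wagner pot.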

Digitaria ciliaris [2] = assay: Test Example 4: herbicidal effect by soil treatment (symbol F); type: in vivo
In short: (§1)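 Seeds were sown in sterilized diluvial soil, covered with about 1.5 cm of soil, and the soil surface was sprayed with a water-diluted emulsion of the compound at a predetermined rate. Plants grew in a greenhouse at 25° C. to 30° C.; effects were scored visually 3 weeks after application.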

[3] = system: Echinochloa crus-galli var. crus-galli; assay: Test Example 4: herbicidal effect by soil treatment (symbol H); type: in vivo
In short: as §1

Avena fatua [4] = assay: Test Example 4: herbicidal effect by soil treatment (symbol I); type: in vivo
In short: as §1

Lolium multiflorum Lam. = assay: Test Example 4: herbicidal effect by soil treatment (symbol K); type: in vivo
In short: as §1

rice = assay: Test Example 4: effect on crop by soil treatment (symbol b); type: in vivo
In short: (§2)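 Soil-treatment setup: crop and weed seeds were spot-sown into sterilized diluvial soil, then buried beneath approximately 1.5 cm of it, and the boxes were housed in a 25–30° C. greenhouse.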

rapeseed [5] = assay: Test Example 4: effect on crop by soil treatment (symbol g); type: in vivo
In short: as §2

Digitaria ciliaris [6] = assay: Test Example 5: herbicidal effect by foliage application, plastic box (symbol F); type: in vivo; settings: 3 weeks after application
In short: (§3)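 Herbicide, formulated as an emulsion and diluted in water, is sprayed onto the aerial parts of 14-day seedlings. These were grown at 25° C. to 30° C. in sterilized diluvial soil; effects are graded after 3 weeks.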

Avena fatua [7] = assay: Test Example 5: herbicidal effect by foliage application, plastic box (symbol I); type: in vivo; settings: 3 weeks after application
In short: as §3

Chenopodium album [8] = assay: Test Example 5: herbicidal effect by foliage application, plastic box (symbol O); type: in vivo; settings: 3 weeks after application
In short: as §3

Stellaria media = assay: Test Example 5: herbicidal effect by foliage application, plastic box (symbol P); type: in vivo; settings: 3 weeks after application
In short: as §3

Veronica persica = assay: Test Example 5: herbicidal effect by foliage application, plastic box (symbol R); type: in vivo; settings: 3 weeks after application
In short: as §3

corn = assay: Test Example 5: effect on crop by foliage application, plastic box (symbol c); type: in vivo; settings: 3 weeks after application
In short: (§4)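 Foliage-application test plants come from spot sowing in sterilized diluvial soil under a soil layer of about 1.5 cm, grown at 25° C. to 30° C. in a greenhouse.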

wheat = assay: Test Example 5: effect on crop by foliage application, plastic box (symbol e); type: in vivo; settings: 3 weeks after application
In short: as §4

rapeseed [9] = assay: Test Example 5: effect on crop by foliage application, plastic box (symbol g); type: in vivo; settings: 3 weeks after application
In short: as §4

Chenopodium album [10] = assay: Test Example 4: herbicidal effect by soil treatment (symbol O); type: in vivo; settings: application herbicide amount 320 g/ha
In short: as §1

[11] = application herbicide amount 102 g/ha
[12] = application herbicide amount 320 g/ha

CC(=O)CC1CC(O)=C(c2c(C)cc(C)cc2C)C1=O (stereo not shown) [2-001, 3-hydroxy-2-mesityl-5-(2-oxopropyl)cyclopent-2-enone]
Herbicidal effect grade, B: Scirpus juncoides (Scirpus juncoides; [11]): 0 (Herbicidal ratio of 5% or lower (almost no effect)) | effect on crop b (directly sowed rice plant), grade 0-5 [1, 11]: 5 (Herbicidal ratio of 90% or more (almost completely withered)) | F: Digitaria ciliaris, herbicidal effect grade (Digitaria ciliaris [2]; 102 g/ha): 5 (Herbicidal ratio of 90% or more (almost completely withered)) | H: Echinochloa crus-galli var. crus-galli, herbicidal effect grade ([3]; 102 g/ha): 5 (Herbicidal ratio of 90% or more (almost completely withered)) | I: Avena fatua, herbicidal effect grade (Avena fatua [4]; 102 g/ha): 0 (Herbicidal ratio of 5% or lower (almost no effect)) | K: Lolium multiflorum Lam., herbicidal effect grade (Lolium multiflorum Lam.; 102 g/ha): 5 (Herbicidal ratio of 90% or more (almost completely withered)) | b: directly sowed rice plant, effect grade on crop (rice; 102 g/ha): 5 (Herbicidal ratio of 90% or more (almost completely withered)) | g: rapeseed, effect grade on crop (rapeseed [5]; 102 g/ha): 3 (Herbicidal ratio of 40% or higher and lower than 70%) | F: Digitaria ciliaris, herbicidal effect grade (Digitaria ciliaris [6]; 102 g/ha): 5 (Herbicidal ratio of 90% or more (almost completely withered)) | I: Avena fatua, herbicidal effect grade (Avena fatua [7]; 102 g/ha): 4 (Herbicidal ratio of 70% or higher and lower than 90%) | O: Chenopodium album, herbicidal effect grade (Chenopodium album [8]; 102 g/ha): 3 (Herbicidal ratio of 40% or higher and lower than 70%) | P: Stellaria media, herbicidal effect grade (Stellaria media; 102 g/ha): 3 (Herbicidal ratio of 40% or higher and lower than 70%) | R: Veronica persica, herbicidal effect grade (Veronica persica; 102 g/ha): 2 (Herbicidal ratio of 20% or higher and lower than 40%) | c: corn, effect on crop grade (corn; 102 g/ha): 3 (Herbicidal ratio of 40% or higher and lower than 70%) | e: wheat, effect on crop grade (wheat; 102 g/ha): 0 (Herbicidal ratio of 5% or lower (almost no effect)) | g: rapeseed, effect on crop grade (rapeseed [9]; 102 g/ha): 4 (Herbicidal ratio of 70% or higher and lower than 90%) | melting point: 183 to 185 °C

CC#Cc1cc(C)c(C2=C(O)CC(CC(C)=NOCC(F)(F)F)C2=O)c(C)c1 (stereo not shown) [9-011]
B (Scirpus juncoides) herbicidal effect grade (Scirpus juncoides; [12]): 5 (Herbicidal ratio of 90% or more (almost completely withered)) | b (directly sowed rice plant) effect on crop grade ([1]; application herbicide amount 320 g/ha, Table 24): 5 (Herbicidal ratio of 90% or more (almost completely withered)) | Herbicidal effect grade, F: Digitaria ciliaris (Digitaria ciliaris [2]; [12]): 5 (Herbicidal ratio of 90% or more (almost completely withered)) | Herbicidal effect grade, H: Echinochloa crus-galli var. crus-galli [3, 12]: 5 (Herbicidal ratio of 90% or more (almost completely withered)) | Herbicidal effect grade, I: Avena fatua (Avena fatua [4]; [12]): 3 (Herbicidal ratio of 40% or higher and lower than 70%) | Herbicidal effect grade, K: Lolium multiflorum Lam. (Lolium multiflorum Lam.; [12]): 5 (Herbicidal ratio of 90% or more (almost completely withered)) | Herbicidal effect grade, O: Chenopodium album (Chenopodium album [10]): 0 (Herbicidal ratio of 5% or lower (almost no effect)) | Effect on crop grade, b: directly sowed rice plant (rice; [12]): 5 (Herbicidal ratio of 90% or more (almost completely withered)) | Effect on crop grade, g: rapeseed (rapeseed [5]; [12]): 4 (Herbicidal ratio of 70% or higher and lower than 90%) | F: Digitaria ciliaris, herbicidal effect grade (Digitaria ciliaris [6]; 320 g/ha): 5 (Herbicidal ratio of 90% or more (almost completely withered)) | I: Avena fatua, herbicidal effect grade (Avena fatua [7]; 320 g/ha): 5 (Herbicidal ratio of 90% or more (almost completely withered)) | O: Chenopodium album, herbicidal effect grade (Chenopodium album [8]; 320 g/ha): 1 (Herbicidal ratio of 5% or higher and lower than 20%) | P: Stellaria media, herbicidal effect grade (Stellaria media; 320 g/ha): 0 (Herbicidal ratio of 5% or lower (almost no effect)) | R: Veronica persica, herbicidal effect grade (Veronica persica; 320 g/ha): 3 (Herbicidal ratio of 40% or higher and lower than 70%) | c: corn, effect on crop grade (corn; 320 g/ha): 5 (Herbicidal ratio of 90% or more (almost completely withered)) | e: wheat, effect on crop grade (wheat; 320 g/ha): 5 (Herbicidal ratio of 90% or more (almost completely withered)) | g: rapeseed, effect on crop grade (rapeseed [9]; 320 g/ha): 4 (Herbicidal ratio of 70% or higher and lower than 90%)
